Experiments:
Experiment in all cases: NCI human tumor cell panel
A498 = assay type: cell-based; settings: A498, read-out: Log10 LC50 (converted)
Text: (§1) Considering the diversity of tumors in terms of cell type, morphology, growth rate and other cellular characteristics, the U.S. National Cancer Institute (NCI) has developed a "disease-oriented" approach to antitumor activity screening (M.R. Boyd, in "Principle of Practice of Oncology" J.T. Devita, S. Hellman, S.A. Rosenberg (Eds.) Vol. 3, PPO Update, No. 10, 1989). This in vitro prescreening system is based on the measurement of antitumor cytotoxicity against human tumor cell line panels consisting of approximately 60 cell lines of major human tumors (including leukemia and slower growing tumor cells such as lung, colon, breast, skin, kidney, etc.). The most important advantage of the new in vitro screening panels is the opportunity to identify compounds that are selectively more cytotoxic to cells of slowly growing solid tumors than to rapidly growing leukemia cells.
(§2) The cytotoxic activity of the present selenophene compounds have been measured utilizing two different assays or screens. The first screen measures the cytotoxicity against a panel of sixty different human tumor cell lines. This assay provides data regarding the general cytotoxicity of an individual compound. In particular this type of assay is useful in identifying compounds which have enhanced cytotoxic activity against slow growing tumors as compared to faster growing tumor cells such as leukemia tumor cell lines. The identification of such compounds is critical since previously identified antitumor agents have low cytotoxic activity against slower growing tumors. […] The specificity of a cytotoxic compound for tumor cell lines relative to normal cells is an important characteristic of an effective antitumor agent.
(§3) Antitumor cytotoxicity data generated from the National Cancer Institute human tumor cell panels can also be expressed in a graphic pattern (mean graph) to display differential cell growth inhibition (K.D. Paull, R.H. Shoemaker, L. Hodes, A. Monks, D.A. Scudiero, L. Rubinstein, J. Plowman and M.R. Boyd, J. Nail. Cancer Inst., 81, 1088, 1989.) In the mean graph, the arithmetic mean of the logarithm of the GI50 (50% growth inhibition), TGI (total growth inhibition) or LC50 (50% lethal concentration) values is used as an anchor point. […] The length of a bar is indicative of differential cytotoxicity against a specific type of tumor cells or tumor panels.
(§4) The antitumor cytotoxicity of the selenophene compounds tested in those in vitro assays was measured by a microculture assay using either a 3-(4,5-dimethylthiazol-2-yl)-2,5-diphenyltetrazolium bromide (MTT) or sulforhodamine B (SRB) based assay. [M.R. Boyd in "Principles and Practices of Oncology," V.T. DeVita, Jr.]. The experiments were conducted at Purdue University in 96-well microtiter plates and the cytotoxic effects of the selenophene compounds on those cells were measured by cell count using a Coulter Z.F. counter (Hialeah, FL). The results are expressed as GI50, the concentration of drug at which cell numbers are reduced to 50% of control cell culture [T.C.K. Chan, C.J. Chang, N.M. Koonchanok and R.L. Geahlen, Biochem. Biophys. Res. Commun., 193, 1152, (1993); S. Hellman and S.A. Rosenberg (Eds.), Vol. 3, PPO Updates, Number 10, (1989).]
(§5) This in vitro microculture assay has an advantage over in vivo assays in that results are obtained within a week as opposed to several months. The MTT assay is based on the production of a dark blue formazan product by dehydrogenase in the mitochondria of live tumor cells after exposure to drug for 6 days [M.C. Alley, D.A. Scudiero, A. Monks, M.L. Hursey, M.J. Czerwinski, D.L. Fine, B.J. Abbott, J.G. Mayo, R.H. Shoemaker and M.R. Boyd, Cancer Res., 48, 589, 1988]. Thus, only live cells are stained and can be measured at 570 nm. […]

A549/ATCC = assay type: cell-based; settings: A549, read-out: Log10 LC50 (converted)
Text: as §1, §2, §3, §4, §5

BT-549 = assay type: cell-based; settings: BT-549, read-out: Log10 LC50 (converted)
Text: as §1, §2, §3, §4, §5

CCRF-CEM = assay type: cell-based; settings: read-out: Log10 LC50 (converted)
Text: as §1, §2, §3, §4, §5

DU-145 = assay type: cell-based; settings: DU-145, read-out: Log10 LC50 (converted)
Text: as §1, §2, §3, §4, §5

HCT-116 = assay type: cell-based; settings: HCT-116, read-out: Log10 LC50 (converted)
Text: as §1, §2, §3, §4, §5

HCT-15 = assay type: cell-based; settings: HCT-15, read-out: Log10 LC50 (converted)
Text: as §1, §2, §3, §4, §5

HOP-62 = assay type: cell-based; settings: HOP-62, read-out: Log10 LC50 (converted)
Text: as §1, §2, §3, §4, §5

K-562 = assay type: cell-based; settings: K562, read-out: Log10 LC50 (converted)
Text: as §1, §2, §3, §4, §5

KM12 = assay type: cell-based; settings: KM12, read-out: Log10 LC50 (converted)
Text: as §1, §2, §3, §4, §5

MCF7/ADR-RES = assay type: cell-based; settings: MCF7, read-out: Log10 LC50 (converted)
Text: as §1, §2, §3, §4, §5

MCF7 = assay type: cell-based; settings: MCF7, read-out: Log10 LC50 (converted)
Text: as §1, §2, §3, §4, §5

MDA-N = assay type: cell-based; settings: read-out: Log10 LC50 (converted)
Text: as §1, §2, §3, §4, §5

OVCAR-5 = assay type: cell-based; settings: OVCAR-5, read-out: Log10 LC50 (converted)
Text: as §1, §2, §3, §4, §5

SF-539 = assay type: cell-based; settings: SF-539, read-out: Log10 LC50 (converted)
Text: as §1, §2, §3, §4, §5

SK-MEL-28 = assay type: cell-based; settings: SK-MEL-28, read-out: Log10 LC50 (converted)
Text: as §1, §2, §3, §4, §5

SN12C = assay type: cell-based; settings: read-out: Log10 LC50 (converted)
Text: as §1, §2, §3, §4, §5

SW-620 = assay type: cell-based; settings: SW-620, read-out: Log10 LC50 (converted)
Text: as §1, §2, §3, §4, §5

U251 = assay type: cell-based; settings: U-251, read-out: Log10 LC50 (converted)
Text: as §1, §2, §3, §4, §5

SK-MEL-5 = settings: SK-MEL-5, read-out: Log10 LC50 (converted)
MDA-MB-435 = settings: MDA-MB-435, read-out: Log10 LC50 (converted)

SMILES | CC50 (A498) [µM] | CC50 (A549/ATCC) [µM] | CC50 (BT-549) [µM] | CC50 (CCRF-CEM) [µM] | CC50 (DU-145) [µM] | CC50 (HCT-116) [µM] | CC50 (HCT-15) [µM] | CC50 (HOP-62) [µM] | LC50 (K-562) [µM] | CC50 (KM12) [µM] | CC50 (MCF7/ADR-RES) [µM] | CC50 (MCF7) [µM] | LC50 (50% lethal concentration) (MDA-N) [µM] | CC50 (OVCAR-5) [µM] | CC50 (SF-539) [µM] | CC50 (SK-MEL-28) [µM] | CC50 (SN12C) [µM] | CC50 (SW-620) [µM] | CC50 (U251) [µM] | CC50 (SK-MEL-5) [µM] | also measured
O=Cc1ccc(-c2ccc(-c3ccc(C=O)[se]3)[se]2)[se]1 | 6.76 | > 100 | > 100 | > 100 | > 100 | > 100 | > 100 | > 100 | > 100 | > 100 | > 100 | > 100 | > 100 | > 100 | > 100 | > 100 | > 100 | > 100 | > 100 | > 100 | CC50 (MDA-MB-435): > 100 µM
O=Cc1ccc(-c2ccc(-c3ccc[se]3)[se]2)[se]1 | 6.31 | 51.3 | 79.4 | > 100 | 51.3 | 38.9 | 79.4 | 74.1 | > 100 | 45.7 |  | 43.7 | 64.6 | 75.9 | 63.1 | 55 | 50.1 |  | 47.9 | 37.2 | CC50 (MDA-MB-435): > 100 µM
OCc1ccc(-c2ccc(-c3ccc[se]3)[se]2)[se]1 | 0.692 | 46.8 |  | > 100 | 46.8 | 32.4 | > 100 | 44.7 | > 100 | 52.5 | > 100 | 29.5 | > 100 | > 100 | 51.3 | 53.7 |  | 35.5 | 55 | 29.5 | 
O=Cc1ccc(-c2ccc(-c3cccs3)[se]2)s1 | 0.933 | > 100 | > 100 | > 100 | > 100 | > 100 | > 100 | > 100 | > 100 | > 100 | > 100 | > 100 | > 100 | > 100 | > 100 | > 100 | > 100 | > 100 | > 100 | > 100 | CC50 (MDA-MB-435): > 100 µM
OCc1ccc(-c2ccc(-c3ccc(CO)[se]3)[se]2)[se]1 | 7.24 | 53.7 | > 100 | > 100 | 46.8 | > 100 | 55 | 57.5 | 70.8 | 50.1 | > 100 | 47.9 | 74.1 | > 100 | 95.5 | > 100 | > 100 | 9.55 | 50.1 | 6.31 | CC50 (MDA-MB-435): 49 µM
O=Cc1ccc(-c2ccc(-c3ccc(C=O)[se]3)s2)[se]1 |  | > 100 | > 100 | > 100 | > 100 | > 100 | > 100 | > 100 | > 100 | > 100 | > 100 | > 100 | > 100 | 3.55 | > 100 | > 100 | > 100 | > 100 | > 100 | > 100 | CC50 (MDA-MB-435): > 100 µM
O=Cc1ccc(-c2ccc(-c3ccc(C=O)s3)[se]2)s1 | 4.07 | > 100 | > 100 | > 100 | > 100 | > 100 | > 100 | > 100 | > 100 | > 100 | > 100 | > 100 | > 100 | > 100 | > 100 | > 100 | > 100 | > 100 | 89.1 | > 100 | CC50 (MDA-MB-435): > 100 µM
OCc1ccc(-c2ccc(-c3ccc[se]3)s2)[se]1 | 0.302 | > 100 | 87.1 | > 100 | > 100 | > 100 | > 100 | > 100 | > 100 | > 100 | 97.7 | > 100 | > 100 |  | > 100 | > 100 | > 100 | > 100 | 44.7 | > 100 | CC50 (MDA-MB-435): > 100 µM
OCc1ccc(-c2ccc(-c3ccc(CO)[se]3)s2)s1 | 0.0724 | > 100 | > 100 | > 100 | > 100 | 81.3 | > 100 | 85.1 | 97.7 | > 100 | > 100 | > 100 | > 100 | > 100 | 83.2 | > 100 | > 100 | > 100 | 72.4 | > 100 | CC50 (MDA-MB-435): > 100 µM
OCc1ccc(-c2ccc(-c3ccc(CO)s3)[se]2)s1 | 0.158 | > 100 | > 100 | > 100 | > 100 | > 100 | > 100 | > 100 | > 100 | > 100 | > 100 | > 100 | > 100 | > 100 | > 100 | > 100 | > 100 | > 100 | > 100 | > 100 | CC50 (MDA-MB-435): > 100 µM

— EP1021178B1, “SELENOPHENE ANTI-TUMOR AGENTS” (Purdue Research Foundation, priority 1996, dated 1997)
